Measurements reported in patent US8202892B2, “Advanced glycation end products as active ingredients” (Henkel AG & Co. KGaA, priority 2007, dated 2012).

Assays:
Type in all cases: cell-based
[1] = system: TGF-beta 1; test: Relative gene expression in reconstructed dermal papillae: TGF-beta 1; details: 24 hours, untreated medium = 1.00
Protocol: (§1) Reconstructed dermal papillae as described in European patent 1 455 854 were systemically treated for 24 hours with each of the test substances listed in Table 7 in the cited concentrations. The relative gene expression profile was determined for the markers HGF and KGF (important markers of the anagen phase of the hair cycle) and TGF-beta 1, TGF-beta 2 and IGFBP3 (important markers of the catagen phase of the hair cycle). Expression for incubation with the untreated medium served as the reference; values presented in the Table illustrate the differential gene expression. A differential gene expression that is 1.66 times or greater than the absolute numerical value of the control gene expression is regarded as significant.

[2] = system: HGF; test: Relative gene expression in reconstructed dermal papillae: HGF; details: 24 hours, untreated medium = 1.00, 1.66 times or greater significant
Protocol: as §1

[3] = system: TGF-beta 2; test: Relative gene expression in reconstructed dermal papillae: TGF-beta 2; details: 24 hours, untreated medium = 1.00
Protocol: as §1

[4] = system: IGFBP3; test: Relative gene expression in reconstructed dermal papillae: IGFBP3; details: 24 hours, untreated medium = 1.00
Protocol: as §1

[5] = system: KGF; test: Relative gene expression in reconstructed dermal papillae: KGF; details: 24 hours, untreated medium = 1.00
Protocol: as §1

[6] = system: Keratinocyte Growth Factor (KGF); test: KGF release from reconstructed hair follicle models, ELISA
Excerpt: (§2) Both the Hepatocyte Growth Factor (HGF) and Keratinocyte Growth Factor (KGF) are important regulators of the hair cycle. A change in the availability for the substances that regulate the hair cycle in comparison with the untreated controls should be assumed. The release of HGF and KGF can be quantified with the help of commercially available ELISA kits (Quantikine, RnD-Systems, Wiesbaden, Germany). For this, reconstructed hair follicle models, which are described in the European patent 1 455 854, were incubated with the test substances for 72 hours and the concentration of the growth factors in the medium was determined in the described manner. In order to be able to rule out that the described effects could have been caused by unreacted sugar (glucose or lactose), the respective individual components were tested at the highest possible concentration. The quantities of the untreated controls were set to 100% and the quantities of the treated samples were relative to these. The standard deviations were calculated from the three biological approaches.

[7] = system: Hepatocyte Growth Factor (HGF); test: HGF release from reconstructed hair follicle models, ELISA
Excerpt: as §2

[8] = system: organo-typical cell cultures (reconstructed dermal papillae); test: ATP production, ATPLite-M luciferase assay; details: dermal papillae cells
Protocol: ATP determinations were made using the ATPLite™-M Assays (from Packard). The test principle of this assay is based on the fact that the lucerifase from Photinus pyralis catalyzes a reaction in which, in the presence of ATP, D-luciferin is converted to oxyluciferin. Green light is emitted in this reaction and can be measured with an illuminometer. The emitted bioluminescence light is proportional to the amount of ATP present. Determination of ATP activity is carried out in organo-typical cell cultures (reconstructed dermal papillae according to EP 1 455 854). Treatment with the substance mixture is carried out for 24 hours against an untreated control. The cells were then lysed with 100 μl/cavity of a lyse buffer contained in a test kit for 5 minutes on a shaker. The cells were then incubated an additional 5 minutes with 100 μl/cavity of the supplied substrate solution on the shaker, and the reaction mixture was subsequently transferred into a black microtitre plate. Luminescence was measured after an incubation time of 10 minutes in the dark.

[9] = system: fibroblasts; test: Relative vitality (cell activity) of cultivated fibroblasts, redox dye WST-1; details: untreated control = 100%
Protocol: Vitality of the cultivated cells was determined by means of redox dyes. These dyes penetrate into the cells and are reduced by electron capture at the external mitochondrial membrane. This reduction requires a color change that is subsequently photometrically analyzed. Vitality was quantified by setting the untreated control to 100% and the measured values of the samples treated with the substances were in reference to that figure. Cell damaging means a relative vitality of less than 80%, and cell activating means greater than or equal to 120%. Cell Proliferation Reagent Wst-1 (Roche Applied Science, Mannheim, Germany) was used for this test.

[10] = system: IL-8; test: Basal release of IL-8 from HaCaT keratinocytes, ELISA; details: 0.5%
Protocol: Measurement of the basal release of IL-8 provides information on the effects of substances on inflammation reactions. IL-8 is a pro-inflammatory cytokine, which plays a central role in the inflammation cascade of the skin. A reduction of the basal release of IL-8 points to potential inflammation inhibiting effects of the studied substances. In order to determine the release of the IL-8, HaCaT keratinocytes were incubated in Hanks medium with glutamax, 5% FCS and antibiotics in 24 well culture vessels. On day 2 after seeding, cells were incubated with the test substances in a concentration of 0.5%. After treatment for 15-20 h the cell culture supernatant was removed and the amount of released IL-8 was quantified by ELISA. The Quantikine IL-8 from RnD-Systems (Wiesbaden, Germany) was used for these analyses. Values illustrated in Table 5 are relative values with respect to the untreated controls from 4 independent experiments.

[11] = system: fibroblasts; test: Proliferation of fibroblasts by CyQuant; details: for Proliferation MW: untreated control = 100%
Excerpt: Determination of the proliferation of the cultivated cells provides information on the status of the cell division of the treated cells. Both cell division stimulating and cell division inhibiting substances can be defined with this analysis. An outstanding feature during the cell division is the duplication of the DNA. During the new synthesis, nucleotides are built into the newly formed DNA strand. The proliferation can be measured by offering a non-natural nucleotide derivative (bromo deoxy uridine, BrdU) to the cells for the new synthesis; the BrdU can be subsequently detected with specific antibodies. The amount of newly synthesized DNA can be quantified fluorimetrically and provides proportional information on the degree of the cell division process. Proliferation was determined by setting the untreated control to 100% and the measured values of the samples treated with the substances were in reference to that figure. For a relative proliferation of less than 80% the substance effect is said to be inhibitive, for greater than or equal to 120% the substance effect is considered to be stimulative. The CyQuant Assay Cell Proliferation Assay from Molecular Probes was used for this test according to manufacturer's directions.

[12] = system: markers of anagen and catagen phase of the hair cycle; test: Relative gene expression profile of the markers of the hair cycle (statements in words); details: 0.1 wt. %
Protocol: as §1

[13] = 0.40% w/v, 72 hours, untreated = 100%
[14] = reconstructed hair follicle model

O=CC(=O)C[C@H](O)[C@H](O)CO [3-Desoxyglucosulose (18), 3-desoxyglucosulose]
Differential gene expression TGFβ1 (Catagen) ([1]; 0.01% (wt. %)): 1.02
Differential gene expression TGFβ1 (Catagen) ([1]; 0.1% (wt. %)): −1.27
Differential gene expression HGF (Anagen) ([2]; 0.01% (wt. %)): −2.09
Differential gene expression HGF (Anagen) ([2]; 0.1% (wt. %)): −1.78
Differential gene expression TGFβ2 (Catagen) ([3]; 0.01% (wt. %)): −1.67
Differential gene expression TGFβ2 (Catagen) ([3]; 0.1% (wt. %)): −1.54
Differential gene expression IGFBP3 (Catagen) ([4]; 0.01% (wt. %)): −1.20
Differential gene expression IGFBP3 (Catagen) ([4]; 0.1% (wt. %)): −2.12
Differential gene expression KGF (Anagen) ([5]; 0.01% (wt. %)): −1.33
Differential gene expression KGF (Anagen) ([5]; 0.1% (wt. %)): −1.93

N[C@@H](CCCCNCC(=O)O)C(=O)O [Carboxymethyllysine (13), N-ε-carboxymethyllysine]
Differential gene expression TGFβ1 (Catagen) ([1]; 0.1% (wt. %)): 1.35
Differential gene expression HGF (Anagen) ([2]; 0.1% (wt. %)): −1.77
Differential gene expression TGFβ2 (Catagen) ([3]; 0.1% (wt. %)): −1.07
Differential gene expression IGFBP3 (Catagen) ([4]; 0.1% (wt. %)): 1.98
Differential gene expression KGF (Anagen) ([5]; 0.1% (wt. %)): 1.24

N[C@@H](CCCCNCC(=O)[C@@H](O)[C@H](O)[C@H](O)CO)C(=O)O [Fructoselysine (12), N-ε-fructosyllysine]
Differential gene expression TGFβ1 (Catagen) ([1]; 0.01% (wt. %)): 1.04
Differential gene expression TGFβ1 (Catagen) ([1]; 0.1% (wt. %)): −1.10
Differential gene expression HGF (Anagen) ([2]; 0.01% (wt. %)): −1.92
Differential gene expression HGF (Anagen) ([2]; 0.1% (wt. %)): −1.69
Differential gene expression TGFβ2 (Catagen) ([3]; 0.01% (wt. %)): −2.40
Differential gene expression TGFβ2 (Catagen) ([3]; 0.1% (wt. %)): −2.40
Differential gene expression IGFBP3 (Catagen) ([4]; 0.01% (wt. %)): −1.44
Differential gene expression IGFBP3 (Catagen) ([4]; 0.1% (wt. %)): −1.83
Differential gene expression KGF (Anagen) ([5]; 0.01% (wt. %)): −1.96
Differential gene expression KGF (Anagen) ([5]; 0.1% (wt. %)): −2.49

OC[C@H]1O[C@@H](O[C@H]2[C@H](O)[C@@H](O)C(O)O[C@@H]2CO)[C@H](O)[C@@H](O)[C@H]1O (stereo partly drawn) [Lactose, D-(+)-lactose]
KGF release MW % [6, 13]: 101.2%
Effect on KGF release (in words) [6, 14]: distinct effect due to treatment with sugars (lactose and glucose) could not be established
HGF release MW % [7, 13]: 65.3%
Effect on release of HGF (in words) [7, 14]: reduced release of HGF
Effect on synthesis rate of ATP (in words) [8]: did not lead at any time and at any concentration to a change
Vitality MW ([9]; 250 μg/ml): 97.5%
Vitality MW ([9]; 500 μg/ml): 98.6%
Vitality MW ([9]; 1000 μg/ml): 102.0%
Vitality MW ([9]; 2000 μg/ml): 116.4%
Vitality MW ([9]; 4000 μg/ml): 119.8%
Effect on basal release of IL-8 (in words) [10]: did not lead to a significant change
Effect on cell division activity of fibroblasts (in words) [11]: No effect could be detected
Proliferation MW ([11]; 250 μg/ml): 107.2%
Proliferation MW ([11]; 500 μg/ml): 90.4%
Proliferation MW ([11]; 1000 μg/ml): 111.7%
Proliferation MW ([11]; 2000 μg/ml): 107.6%
Proliferation MW ([11]; 4000 μg/ml): 77.5%

Cc1occc(=O)c1O [Maltol, 3-hydroxy-2-methyl-4H-pyran-4-one]
Differential gene expression TGFβ1 (Catagen) ([1]; 0.01% (wt. %)): −1.28
Differential gene expression TGFβ1 (Catagen) ([1]; 0.025% (wt. %)): −1.20
Differential gene expression HGF (Anagen) ([2]; 0.01% (wt. %)): −1.23
Differential gene expression HGF (Anagen) ([2]; 0.025% (wt. %)): 1.07
Differential gene expression TGFβ2 (Catagen) ([3]; 0.01% (wt. %)): −1.86
Differential gene expression TGFβ2 (Catagen) ([3]; 0.025% (wt. %)): −3.21
Differential gene expression IGFBP3 (Catagen) ([4]; 0.01% (wt. %)): −1.69
Differential gene expression IGFBP3 (Catagen) ([4]; 0.025% (wt. %)): −3.63
Differential gene expression KGF (Anagen) ([5]; 0.01% (wt. %)): −1.87
Differential gene expression KGF (Anagen) ([5]; 0.025% (wt. %)): −3.02

Cc1c(O)c(=O)ccn1CCCC[C@H](N)C(=O)O [Maltosine (15), maltosine]
Gene expression of markers of catagen (in words) [12]: simultaneously increased gene expression of markers of catagen
Differential gene expression TGFβ1 (Catagen) ([1]; 0.1% (wt. %)): 3.39
Differential gene expression HGF (Anagen) ([2]; 0.1% (wt. %)): −2.09
Differential gene expression TGFβ2 (Catagen) ([3]; 0.1% (wt. %)): −2.24
Differential gene expression IGFBP3 (Catagen) ([4]; 0.1% (wt. %)): 7.55
Differential gene expression KGF (Anagen) ([5]; 0.1% (wt. %)): −1.45

CC1NC(NCCC[C@H](N)C(=O)O)=NC1=O (stereo partly drawn) [Ornithinoimidazolinone (16), ornithinoimidazolinone]
Differential gene expression TGFβ1 (Catagen) ([1]; 0.1% (wt. %)): 1.08
Differential gene expression HGF (Anagen) ([2]; 0.1% (wt. %)): −3.30
Differential gene expression TGFβ2 (Catagen) ([3]; 0.1% (wt. %)): −1.66
Differential gene expression IGFBP3 (Catagen) ([4]; 0.1% (wt. %)): −1.60
Differential gene expression KGF (Anagen) ([5]; 0.1% (wt. %)): −1.25
